From ChEMBL document CHEMBL5154689, “Discovery of novel β-carboline derivatives as selective AChE inhibitors with GSK-3β inhibitory property for the treatment of Alzheimer's disease” (Eur J Med Chem, 2022)
pIC50: −log10 of the molar value. Active and inactive are the calls of the source. The calls are words filed in the database; no cut-off is given here.

Assays:
[1] = target: Cholinesterase (Equus caballus) (UniProt P81908); assay: Inhibition of equine serum BChE at 50 uM using butyrylthiocholine iodide as substrate preincubated with enzyme for 20 mins followed by substrate addition and measured after 20 mins by Ellman's method; format: cell-free; settings: time 40.0 min
Sequence of Cholinesterase (Equus caballus) (P81908 whole entry): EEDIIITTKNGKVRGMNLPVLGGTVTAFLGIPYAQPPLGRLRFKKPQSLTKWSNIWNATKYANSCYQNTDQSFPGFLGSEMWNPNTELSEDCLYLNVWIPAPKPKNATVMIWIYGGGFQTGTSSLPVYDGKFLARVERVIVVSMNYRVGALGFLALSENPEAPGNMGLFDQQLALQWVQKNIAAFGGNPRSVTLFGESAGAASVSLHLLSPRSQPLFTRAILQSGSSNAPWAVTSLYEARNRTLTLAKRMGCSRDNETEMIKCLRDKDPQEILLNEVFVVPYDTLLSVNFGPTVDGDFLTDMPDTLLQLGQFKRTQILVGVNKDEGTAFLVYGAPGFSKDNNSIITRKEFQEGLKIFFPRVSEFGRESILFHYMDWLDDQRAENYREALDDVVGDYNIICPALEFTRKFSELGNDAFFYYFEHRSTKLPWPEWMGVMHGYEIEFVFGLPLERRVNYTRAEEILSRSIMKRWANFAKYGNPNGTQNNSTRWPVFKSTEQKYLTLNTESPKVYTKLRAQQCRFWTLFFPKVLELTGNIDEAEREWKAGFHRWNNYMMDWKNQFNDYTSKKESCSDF

[2] = target: Acetylcholinesterase (Electrophorus electricus, UniProt O42275); assay: Inhibition of electric eel AChE using acetylthiocholine iodide as substrate preincubated with enzyme for 20 mins followed by substrate addition and measured after 20 mins by Ellman's method
Sequence of Acetylcholinesterase (O42275 whole entry): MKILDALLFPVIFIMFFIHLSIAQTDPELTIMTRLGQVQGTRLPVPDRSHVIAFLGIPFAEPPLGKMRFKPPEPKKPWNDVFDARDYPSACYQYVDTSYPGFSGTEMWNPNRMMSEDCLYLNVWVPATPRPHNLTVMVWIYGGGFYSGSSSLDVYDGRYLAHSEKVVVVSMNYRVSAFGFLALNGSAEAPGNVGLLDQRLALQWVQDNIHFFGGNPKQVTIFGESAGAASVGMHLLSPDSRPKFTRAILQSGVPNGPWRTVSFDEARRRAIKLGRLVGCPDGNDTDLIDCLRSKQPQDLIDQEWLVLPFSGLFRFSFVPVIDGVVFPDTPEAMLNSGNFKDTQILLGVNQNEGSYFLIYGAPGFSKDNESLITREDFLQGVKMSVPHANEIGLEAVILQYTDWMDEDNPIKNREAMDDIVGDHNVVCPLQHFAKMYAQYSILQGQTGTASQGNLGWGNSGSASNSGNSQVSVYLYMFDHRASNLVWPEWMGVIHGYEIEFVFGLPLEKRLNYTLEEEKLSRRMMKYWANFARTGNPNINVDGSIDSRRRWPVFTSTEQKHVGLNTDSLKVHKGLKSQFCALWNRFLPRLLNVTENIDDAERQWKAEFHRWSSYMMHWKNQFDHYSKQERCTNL

[3] = target: Cholinesterase (Equus caballus, UniProt P81908); assay: Inhibition of equine serum BChE using butyrylthiocholine iodide as substrate preincubated with enzyme for 20 mins followed by substrate addition and measured after 20 mins by Ellman's method; format: cell-free
Sequence of Cholinesterase (P81908 whole entry): as the sequence (P81908 whole entry) above

[4] = Selectivity index, ratio of IC50 for equine serum BChE to IC50 for electric eel AChE
[5] = target: T1, Glycogen synthase kinase-3 beta (Homo sapiens, UniProt P49841); assay: Inhibition of GSK3-beta (unknown origin) at 10 uM incubated for 60 mins by ATP-Glo luminescent assay
Target sequence in this assay (P49841 whole entry, looked up): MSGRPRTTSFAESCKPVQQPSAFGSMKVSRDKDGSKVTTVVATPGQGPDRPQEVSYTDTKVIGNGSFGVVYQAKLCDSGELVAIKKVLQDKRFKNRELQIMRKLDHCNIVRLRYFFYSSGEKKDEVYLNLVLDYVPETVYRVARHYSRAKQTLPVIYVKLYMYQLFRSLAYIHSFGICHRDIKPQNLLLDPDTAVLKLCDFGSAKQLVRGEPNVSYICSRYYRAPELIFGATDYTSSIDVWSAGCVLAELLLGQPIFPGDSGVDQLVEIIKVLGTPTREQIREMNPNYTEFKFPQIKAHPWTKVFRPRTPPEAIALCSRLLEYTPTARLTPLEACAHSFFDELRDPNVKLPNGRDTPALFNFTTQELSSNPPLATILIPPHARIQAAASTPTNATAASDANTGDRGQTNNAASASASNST

[6] = target: T1, Glycogen synthase kinase-3 beta; assay: Inhibition of GSK3-beta (unknown origin) incubated for 60 mins by ATP-Glo luminescent assay
Target sequence in this assay (P49841 whole entry): as the sequence (P49841 whole entry, looked up) above

[7] = target: Dual specificity tyrosine-phosphorylation-regulated kinase 1A (Homo sapiens) (UniProt Q13627); assay: Inhibition of DYRK1A (unknown origin) at 0.5 to 1 uM; settings: dose 0.5-1 µM
[8] = target: Dual specificity tyrosine-phosphorylation-regulated kinase 1B (Homo sapiens) (UniProt Q9Y463); assay: Inhibition of DYRK1B (unknown origin) at 0.5 to 1 uM; settings: dose 0.5-1 µM
Sequence of Dual specificity tyrosine-phosphorylation-regulated kinase 1B (Homo sapiens) (Q9Y463 whole entry, looked up): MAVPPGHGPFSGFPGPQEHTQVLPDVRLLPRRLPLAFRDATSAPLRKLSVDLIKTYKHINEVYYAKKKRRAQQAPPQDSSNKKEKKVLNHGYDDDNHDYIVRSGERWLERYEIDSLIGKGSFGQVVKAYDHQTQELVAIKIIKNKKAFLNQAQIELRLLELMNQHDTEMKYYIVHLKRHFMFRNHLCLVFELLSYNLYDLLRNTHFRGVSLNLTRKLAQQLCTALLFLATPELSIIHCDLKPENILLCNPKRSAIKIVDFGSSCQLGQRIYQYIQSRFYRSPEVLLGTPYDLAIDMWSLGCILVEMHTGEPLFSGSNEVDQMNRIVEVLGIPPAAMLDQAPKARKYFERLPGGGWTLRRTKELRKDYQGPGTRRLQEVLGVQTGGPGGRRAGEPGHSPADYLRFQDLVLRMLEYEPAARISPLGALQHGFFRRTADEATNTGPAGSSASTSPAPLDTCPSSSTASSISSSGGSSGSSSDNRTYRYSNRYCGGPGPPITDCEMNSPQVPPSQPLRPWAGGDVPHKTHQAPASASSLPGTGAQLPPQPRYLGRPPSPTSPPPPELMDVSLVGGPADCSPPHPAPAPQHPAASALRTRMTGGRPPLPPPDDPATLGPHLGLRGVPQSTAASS

[9] = tested on: SH-SY5Y; assay: Cytotoxicity against human SH-SY5Y cells assessed as reduction in cell viability at 1 to 20 uM incubated for 48 hrs by MTT assay; format: toxicity, cell-based; settings: dose 1-20 µM
[10] = tested on: HepG2; assay: Cytotoxicity against human HepG2 cells assessed as reduction in cell viability at 1 to 20 uM incubated for 48 hrs by MTT assay; format: toxicity, cell-based; settings: hepg2, 48 h, dose 1-20 µM
[11] = tested on: L02; assay: Cytotoxicity against human HL7702 cells assessed as reduction in cell viability at 1 to 20 uM incubated for 48 hrs by MTT assay; format: toxicity, cell-based; settings: l02, 48 h, dose 1-20 µM
[12] = tested on: HEK-293T; assay: Cytotoxicity against human HEK-293T cells assessed as reduction in cell viability at 1 to 20 uM incubated for 48 hrs by MTT assay; format: toxicity, cell-based; settings: dose 1-20 µM
[13] = Acute toxicity in C57BL/6 mouse assessed as effect on body weight at 1000 to 1500 mg/kg measured after 14 days; format: organism-based; settings: in vivo, 336 h, dose 1000-1500 mg/kg, time 14 day
[14] = target: T1, Glycogen synthase kinase-3 beta; assay: Inhibition of GSK3-beta in human HEK293T cells harboring tau P301L mutant assessed as inhibition of tau hyperphosphorylation at Ser396 residue measured after 48 hrs by western blot analysis; format: cell-based; settings: dose 2.5-10 µM, DDE = dose-dependent effect
Target sequence in this assay (P49841 whole entry, looked up): as the sequence (P49841 whole entry, looked up) above

[15] = target: Glycogen synthase kinase-3 alpha (Homo sapiens) (UniProt P49840); assay: Inhibition of GSK3-alpha (unknown origin) at 0.5 to 1 uM; settings: dose 0.5-1 µM
Sequence of Glycogen synthase kinase-3 alpha (Homo sapiens) (P49840 2-483 limits assumed): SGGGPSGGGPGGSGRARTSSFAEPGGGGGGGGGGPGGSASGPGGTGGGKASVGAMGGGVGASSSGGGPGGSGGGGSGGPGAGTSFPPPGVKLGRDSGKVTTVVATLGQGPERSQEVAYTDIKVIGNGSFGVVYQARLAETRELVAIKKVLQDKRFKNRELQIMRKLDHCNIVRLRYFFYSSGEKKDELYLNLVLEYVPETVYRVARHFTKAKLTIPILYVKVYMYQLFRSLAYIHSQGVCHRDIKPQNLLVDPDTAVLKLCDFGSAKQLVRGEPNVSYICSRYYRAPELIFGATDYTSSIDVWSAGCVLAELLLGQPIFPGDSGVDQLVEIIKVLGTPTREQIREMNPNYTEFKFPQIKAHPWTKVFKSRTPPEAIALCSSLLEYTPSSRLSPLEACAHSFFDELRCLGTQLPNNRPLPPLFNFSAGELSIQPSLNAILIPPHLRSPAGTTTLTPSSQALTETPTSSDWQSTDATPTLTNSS

[16] = target: T1, Glycogen synthase kinase-3 beta; assay: Inhibition of GSK3-beta in human HEK293T cells harboring tau P301L mutant assessed as reduction of NFT production measured after 24 hrs by fluorescence staining based analysis; format: cell-based; settings: dose 2.5-10 µM, DDE = dose-dependent effect
Target sequence in this assay (P49841 whole entry, looked up): as the sequence (P49841 whole entry, looked up) above

[17] = target: Acetylcholinesterase (Electrophorus electricus) (UniProt O42275); assay: Potency index, ratio of harmine IC50 to test compound IC50 for electric eel AChE
Sequence of Acetylcholinesterase (Electrophorus electricus) (O42275 24-633 limits assumed): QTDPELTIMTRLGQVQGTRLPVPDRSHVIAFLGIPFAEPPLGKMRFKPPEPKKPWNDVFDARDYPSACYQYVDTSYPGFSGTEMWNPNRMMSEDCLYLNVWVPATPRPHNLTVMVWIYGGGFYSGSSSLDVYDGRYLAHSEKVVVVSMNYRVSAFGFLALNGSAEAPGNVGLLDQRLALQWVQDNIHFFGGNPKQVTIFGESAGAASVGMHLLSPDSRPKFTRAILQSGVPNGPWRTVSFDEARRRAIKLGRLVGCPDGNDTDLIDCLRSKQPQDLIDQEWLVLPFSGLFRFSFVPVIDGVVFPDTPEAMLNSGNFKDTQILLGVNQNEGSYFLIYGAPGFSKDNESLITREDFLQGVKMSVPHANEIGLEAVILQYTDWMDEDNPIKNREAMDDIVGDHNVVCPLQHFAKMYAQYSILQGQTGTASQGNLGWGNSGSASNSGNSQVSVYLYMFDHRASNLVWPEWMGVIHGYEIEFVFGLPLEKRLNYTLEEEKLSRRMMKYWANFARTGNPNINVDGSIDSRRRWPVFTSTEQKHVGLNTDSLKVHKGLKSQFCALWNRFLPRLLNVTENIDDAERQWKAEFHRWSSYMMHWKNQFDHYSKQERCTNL

[18] = target: T1, Glycogen synthase kinase-3 beta; assay: Inhibition of GSK3-beta in human HEK293T cells harboring tau P301L mutant assessed as increase in GSK3-beta phosphorylation at Ser9 residue measured after 48 hrs by western blot analysis; format: cell-based; settings: dose 2.5-10 µM, DDE = dose-dependent effect
Target sequence in this assay (P49841 whole entry, looked up): as the sequence (P49841 whole entry, looked up) above

[19] = tested on: SH-SY5Y; assay: Cytotoxicity against human SH-SY5Y cells assessed as reduction in cell viability at 10 uM incubated for 48 hrs by MTT assay; format: toxicity, cell-based
[20] = tested on: L02; assay: Cytotoxicity against human HL7702 cells assessed as reduction in cell viability at 10 uM incubated for 48 hrs by MTT assay; format: toxicity, cell-based; settings: l02, 48 h

| SMILES | inhibition [1] | pIC50 [2] | pIC50 [3] | Ratio IC50 [4] | inhibition [5] | further results |
| --- | --- | --- | --- | --- | --- | --- |
| O=C(NC1CCN(Cc2ccc(C(F)(F)F)cc2)CC1)c1ccc2c(c1)[nH]c1c(NC(=O)C3CC3)nccc12 | < 10% | 4.86 | < 4.30 | > 3.6 | 71.9% | – |
| O=C(NCCC1CCN(Cc2ccccc2F)CC1)c1ccc2c(c1)[nH]c1c(NC(=O)C3CC3)nccc12 | 63% | 6.57 | 4.68 | 77.1 | 60.8% | pIC50 [6]: 5.17; inhibition [7]: Active; inhibition [8]: Active; Activity [9]: Non-Toxic; Activity [10]: Non-Toxic; Activity [11]: Non-Toxic; Activity [12]: Non-Toxic; Activity [13]: Non-Toxic; inhibition [14]: Dde; inhibition [15]: Active; inhibition [16]: Dde; Ratio IC50 [17]: 37; inhibition [18]: Dde |
| O=C(NCC1CCN(Cc2ccc(F)cc2)CC1)c1ccc2c(c1)[nH]c1c(NC(=O)C3CC3)nccc12 | 39.7% | 5.51 | < 4.30 | > 16.2 | 40.9% | – |
| COc1ccc2c(c1)[nH]c1c(C)nccc12 [HARMINE] | 74.1% | 5.00 | 4.87 | – | – | – |
| O=C(NC1CCN(Cc2cc(F)cc(F)c2)CC1)c1ccc2c(c1)[nH]c1c(NC(=O)C3CC3)nccc12 | < 10% | 4.48 | < 4.30 | > 1.49 | 41.9% | – |
| O=C(NC1CCN(Cc2ccc(F)cc2)CC1)c1ccc2c(c1)[nH]c1c(NC(=O)C3CC3)nccc12 | 36.9% | 5.67 | < 4.30 | > 23.4 | 74.6% | – |
| O=C(NCC1CCN(Cc2ccccc2)CC1)c1ccc2c(c1)[nH]c1c(NC(=O)C3CC3)nccc12 | 37.2% | 5.76 | < 4.30 | 48.1 | 20.8% | – |
| O=C(NCCC1CCN(Cc2ccccc2)CC1)c1ccc2c(c1)[nH]c1c(NC(=O)C3CC3)nccc12 | 68.3% | 6.11 | 4.63 | 30.2 | -2.01% | – |
| O=C(NCC1CCN(Cc2ccc(C(F)(F)F)cc2)CC1)c1ccc2c(c1)[nH]c1c(NC(=O)C3CC3)nccc12 | < 10% | 4.98 | < 4.30 | > 4.81 | 59.5% | – |
| O=C(NC1CCN(Cc2ccccc2)CC1)c1ccc2c(c1)[nH]c1c(NC(=O)C3CC3)nccc12 | 52.6% | 5.63 | 4.41 | 16.6 | 63.3% | – |
| Cc1ccc(CN2CCC(CCNC(=O)c3ccc4c(c3)[nH]c3c(NC(=O)C5CC5)nccc34)CC2)cc1 | 44.3% | 5.56 | < 4.30 | > 18.2 | 62.7% | – |
| O=C(NC1CCN(Cc2cccc(F)c2)CC1)c1ccc2c(c1)[nH]c1c(NC(=O)C3CC3)nccc12 | 30.8% | 5.65 | < 4.30 | > 22.5 | 79.8% | – |
| O=C(NCCC1CCN(Cc2ccc(Cl)cc2)CC1)c1ccc2c(c1)[nH]c1c(NC(=O)C3CC3)nccc12 | < 10% | 4.83 | < 4.30 | > 3.35 | 84.3% | Activity [19]: Toxic; Activity [20]: Toxic |
| O=C(NCC1CCN(Cc2cccc([N+](=O)[O-])c2)CC1)c1ccc2c(c1)[nH]c1c(NC(=O)C3CC3)nccc12 | < 10% | 5.69 | < 4.30 | > 24.4 | 52.1% | – |
| O=C(NCCC1CCN(Cc2cccc(F)c2)CC1)c1ccc2c(c1)[nH]c1c(NC(=O)C3CC3)nccc12 | 65.4% | 6.02 | 4.70 | > 50.1 | 47.8% | – |
| O=C(NCCC1CCN(Cc2c(Cl)cccc2Cl)CC1)c1ccc2c(c1)[nH]c1c(NC(=O)C3CC3)nccc12 | < 10% | 6.05 | < 4.30 | > 56.2 | 52.1% | – |

| SMILES | inhibition [1] | pIC50 [2] | pIC50 [3] | Ratio IC50 [4] | inhibition [5] | further results |
| --- | --- | --- | --- | --- | --- | --- |
| O=C(NCCC1CCN(Cc2cccc([N+](=O)[O-])c2)CC1)c1ccc2c(c1)[nH]c1c(NC(=O)C3CC3)nccc12 | 21.5% | 5.80 | < 4.30 | > 31.9 | 66.2% | – |
| Cc1ccc(CN2CCC(CNC(=O)c3ccc4c(c3)[nH]c3c(NC(=O)C5CC5)nccc34)CC2)cc1 | 15.3% | 5.52 | < 4.30 | > 16.6 | 46.4% | – |
| O=C(NC1CCN(Cc2c(Cl)cccc2Cl)CC1)c1ccc2c(c1)[nH]c1c(NC(=O)C3CC3)nccc12 | < 10% | 5.70 | < 4.30 | > 24.9 | 21.9% | – |
| O=C(NCC1CCN(Cc2c(Cl)cccc2Cl)CC1)c1ccc2c(c1)[nH]c1c(NC(=O)C3CC3)nccc12 | < 10% | 6.47 | < 4.30 | > 147 | 11.3% | – |
| O=C(NCC1CCN(Cc2cc(F)cc(F)c2)CC1)c1ccc2c(c1)[nH]c1c(NC(=O)C3CC3)nccc12 | 10.4% | 5.30 | < 4.30 | > 9.92 | – | – |
| O=C(NC1CCN(Cc2ccc(Cl)cc2)CC1)c1ccc2c(c1)[nH]c1c(NC(=O)C3CC3)nccc12 | < 10% | 4.72 | < 4.30 | > 2.64 | 57.9% | – |
| O=C(NC1CCN(Cc2cccc([N+](=O)[O-])c2)CC1)c1ccc2c(c1)[nH]c1c(NC(=O)C3CC3)nccc12 | 20.1% | 5.56 | < 4.30 | > 18.1 | 78% | – |
| O=C(NCCC1CCN(Cc2ccc(F)cc2)CC1)c1ccc2c(c1)[nH]c1c(NC(=O)C3CC3)nccc12 | 68.7% | 5.92 | 4.69 | 16.8 | 14.9% | – |
| O=C(NCC1CCN(Cc2ccc(Cl)cc2)CC1)c1ccc2c(c1)[nH]c1c(NC(=O)C3CC3)nccc12 | < 10% | 4.71 | < 4.30 | > 2.55 | 11.7% | – |
| O=C(NCC1CCN(Cc2cccc(F)c2)CC1)c1ccc2c(c1)[nH]c1c(NC(=O)C3CC3)nccc12 | 32.6% | 5.65 | < 4.30 | > 22.3 | 11.1% | – |
| O=C(NCC1CCN(Cc2ccccc2F)CC1)c1ccc2c(c1)[nH]c1c(NC(=O)C3CC3)nccc12 | 55.6% | 6.08 | 4.47 | 40.7 | 42.1% | – |
| Cc1ccc(CN2CCC(NC(=O)c3ccc4c(c3)[nH]c3c(NC(=O)C5CC5)nccc34)CC2)cc1 | 23% | 5.07 | < 4.30 | > 5.84 | 10.5% | – |
| COC(=O)c1ccc2c(c1)[nH]c1c(NC(=O)C3CC3)nccc12 | – | < 4.70 | < 4.70 | – | – | pIC50 [6]: 7.15 |
| O=C(NCCC1CCN(Cc2cc(F)cc(F)c2)CC1)c1ccc2c(c1)[nH]c1c(NC(=O)C3CC3)nccc12 | < 10% | 5.24 | < 4.30 | > 8.62 | 2.71% | – |
| O=C(NC1CCN(Cc2ccccc2F)CC1)c1ccc2c(c1)[nH]c1c(NC(=O)C3CC3)nccc12 | 30.8% | 5.58 | < 4.30 | > 18.9 | 84.6% | – |
| O=C(NCCC1CCN(Cc2ccc(C(F)(F)F)cc2)CC1)c1ccc2c(c1)[nH]c1c(NC(=O)C3CC3)nccc12 | < 10% | 4.51 | < 4.30 | > 1.6 | 73.8% | Activity [19]: Toxic; Activity [20]: Toxic |
